# Activity calls are given as the source filed them. No cut-off for these calls is given here.
# Legend:
# Neutrophil elastase [1] = biological target: T1, Neutrophil elastase (Homo sapiens, UniProt P08246); assay: Inhibition of human neutrophil elastase measured for 30 mins by spectrophotometry
# T1 sequence (P08246 whole entry): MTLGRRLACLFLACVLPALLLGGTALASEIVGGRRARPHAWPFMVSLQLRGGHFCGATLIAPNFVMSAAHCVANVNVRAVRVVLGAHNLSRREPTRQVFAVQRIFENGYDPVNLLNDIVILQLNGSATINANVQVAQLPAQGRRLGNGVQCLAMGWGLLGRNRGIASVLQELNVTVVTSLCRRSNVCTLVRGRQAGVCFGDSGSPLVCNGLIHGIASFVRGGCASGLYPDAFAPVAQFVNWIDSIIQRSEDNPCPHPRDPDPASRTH
# Cathepsin G = biological target: T2, Cathepsin G (Homo sapiens, UniProt P08311); assay: Inhibition of human cathepsin G using N-succinyl-Ala-Ala-Pro-Phe-p-nitroanilide as substrate measured for 180 mins by spectrophotometry
# T2 sequence (P08311 whole entry): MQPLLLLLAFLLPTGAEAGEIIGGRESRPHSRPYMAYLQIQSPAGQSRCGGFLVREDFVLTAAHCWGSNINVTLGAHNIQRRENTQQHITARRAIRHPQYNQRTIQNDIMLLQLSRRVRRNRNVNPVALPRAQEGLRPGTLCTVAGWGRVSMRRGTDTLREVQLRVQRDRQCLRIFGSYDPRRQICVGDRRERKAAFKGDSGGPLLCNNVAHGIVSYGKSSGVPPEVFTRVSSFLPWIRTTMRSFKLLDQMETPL
# Neutrophil [2] = assay: cells; conditions: Homo sapiens
# Neutrophil [3] = assay: cells; conditions: Homo sapiens; remark: listed apart in the source
# Myeloblastin = biological target: T3, Myeloblastin (Homo sapiens, UniProt P24158); assay: Inhibition of Pr3 (unknown origin) using t-butyloxycarbonyl-Ala-Ala-Nva-thiobenzyl ester as substrate measured for 180 mins by spectrophotometry
# T3 sequence (P24158 whole entry): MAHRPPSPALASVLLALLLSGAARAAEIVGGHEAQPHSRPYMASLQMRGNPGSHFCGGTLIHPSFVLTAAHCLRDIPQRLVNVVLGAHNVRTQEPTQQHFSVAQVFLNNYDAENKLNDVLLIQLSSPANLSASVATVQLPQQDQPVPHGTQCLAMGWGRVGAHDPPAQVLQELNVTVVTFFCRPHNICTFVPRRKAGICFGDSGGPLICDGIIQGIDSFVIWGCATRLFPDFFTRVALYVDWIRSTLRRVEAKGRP
# [4] = Inhibition of bovine pancreatic trypsin using Nalpha-benzoyl-L-arginine-7-amido-4-methylcoumarin; parameters: species or system Bos taurus
# [5] = Inhibition of bovine pancreas chymotrypsin using N-succinyl-Ala-Ala-Pro-Phe-7-amido-4-methylcoumarin by spectrophotometry; parameters: species or system Bos taurus
# Prothrombin = Prothrombin (Bos taurus, UniProt P00735); assay: Inhibition of bovine plasma thrombin using Benzoyl-Phe-Val-Arg-7-amido-4-methylcoumarin hydrochloride by spectrophotometry
# Neutrophil elastase [6] = biological target: T4, Neutrophil elastase (Mus musculus, UniProt Q3UP87); assay: Inhibition of recombinant mouse neutrophil elastase using methoxysuccinyl-Ala-Ala-Pro-Val-pnitroanilide as substrate preincubated for 15 mins before substrate addition measured after 90 mins by spectrophotometry
# T4 sequence (Q3UP87 whole entry): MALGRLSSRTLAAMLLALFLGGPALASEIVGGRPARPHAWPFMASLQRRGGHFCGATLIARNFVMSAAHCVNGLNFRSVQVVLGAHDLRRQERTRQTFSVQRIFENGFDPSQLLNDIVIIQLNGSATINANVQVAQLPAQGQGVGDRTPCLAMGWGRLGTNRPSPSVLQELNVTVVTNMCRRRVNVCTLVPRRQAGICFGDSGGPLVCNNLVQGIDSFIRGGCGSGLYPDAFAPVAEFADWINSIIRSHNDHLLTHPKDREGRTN
# Pancreatic elastase = Pancreatic elastase (Sus scrofa, UniProt P08419+P00772); assay: Inhibition of porcine pancreatic elastase using methoxysuccinyl-Ala-Ala-Pro-Val-p-nitroanilide as substrate preincubated for 15 mins before substrate addition measured after 60 mins by spectrophotometry; type: protein assay
# Mus musculus [7] = assay: Antiinflammatory activity in C57BL/6 mouse assessed as inhibition of human neutrophil elastase-induced edema compound treated 1 hr prior challenge at 100 mg/kg, ip measured up to 240 mins; type: functional, organism-based; parameters: dose 100 mg/kg
# Mus musculus [8] = assay: Antiinflammatory activity in C57BL/6 mouse assessed as inhibition of LPS-induced edema compound treated 1 hr prior challenge at 100 mg/kg, ip measured up to 240 mins; type: functional, organism-based; parameters: dose 100 mg/kg
# Mus musculus [9] = assay: Protection from LPS-induced acute lung injury in C57BL/6 mouse assessed as inhibition of MPO activity in lung tissue treated 1 hr prior challenge at 100 mg/kg, ip
# Mus musculus [10] = assay: Protection from LPS-induced acute lung injury in C57BL/6 mouse assessed as inhibition of leukocyte infiltration in lung treated 1 hr prior challenge at 100 mg/kg, ip
# Mus musculus [11] = assay: Protection from LPS-induced acute lung injury in C57BL/6 mouse assessed as inhibition of LPS-induced alveolar thickening treated 1 hr prior LPS challenge at 100 mg/kg, ip measured 6 hrs post LPS injection by hematoxylin and eosin staining method
# Mus musculus [12] = assay: Protection from LPS-induced acute lung injury in C57BL/6 mouse assessed as inhibition of LPS-induced leukocyte infiltration treated 1 hr prior LPS challenge at 100 mg/kg, ip measured 6 hrs post LPS injection by hematoxylin and eosin staining method
# Mus musculus [13] = assay: Protection from LPS-induced acute lung injury in C57BL/6 mouse assessed as inhibition of LPS-induced lung tissue destruction treated 1 hr prior LPS challenge at 100 mg/kg, ip measured 6 hrs post LPS injection by hematoxylin and eosin staining method
# Mus musculus [14] = assay: Protection from LPS-induced acute lung injury in C57BL/6 mouse assessed as inhibition of LPS-induced diffuse edematous changes treated 1 hr prior LPS challenge at 100 mg/kg, ip measured 6 hrs post LPS injection by hematoxylin and eosin staining method
# Mus musculus [15] = assay: Toxicity in C57BL/6 mouse assessed as effect on pulmonary alveoli at 100 mg/kg, ip by hematoxylin and eosin staining method; type: organism-based; parameters: dose 100 mg/kg, route intraperitoneal; conditions: in vivo
# Mus musculus [16] = assay: Antiinflammatory activity in C57BL/6 mouse assessed as inhibition of human neutrophil elastase-induced edema compound treated ip 1 hr prior challenge measured up to 240 mins post dose; type: functional, organism-based
# Mus musculus [17] = assay: Antiinflammatory activity in C57BL/6 mouse assessed as inhibition of human neutrophil elastase-induced edema compound treated 1 hr prior challenge at 50 to 100 mg/kg, ip; type: functional, organism-based; conditions: TDE = time-dependent effect
# Mus musculus [18] = assay: Toxicity in C57BL/6 mouse assessed as effect on lung structure at 100 mg/kg, ip by hematoxylin and eosin staining method; type: organism-based; parameters: dose 100 mg/kg, route intraperitoneal; conditions: in vivo
Structure (SMILES),IC50 (Neutrophil elastase [1]) [µM],IC50 (Cathepsin G) [µM],IC50 (Neutrophil [2]) [µM],IC50 (Neutrophil [3]) [µM],other results
CC(C)(C)C(=O)Oc1ccc(S(=O)(=O)Nc2ccccc2C(=O)OCCO)cc1,0.29,> 10,> 20,0.05,–
CO/N=C(\C)c1ccccc1NS(=O)(=O)c1ccc(OC(=O)C(C)(C)C)cc1,–,> 10,> 20,–,–
CO/N=C(/C)c1ccccc1NS(=O)(=O)c1ccc(OC(=O)C(C)(C)C)cc1,–,> 10,> 20,–,–
CCCOC(=O)c1ccccc1NC(=O)c1ccc(OC(=O)C(C)(C)C)cc1,1.23,> 10,> 20,0.62,–
CCOC(=O)c1ccccc1NC(=O)c1ccc(OC(=O)C(C)(C)C)cc1,0.48,> 10,> 20,0.3,–
CC(C)(C)C(=O)Oc1ccc(S(=O)(=O)Nc2ccccc2/C=N\O)cc1,–,> 10,> 20,–,–
COC(=O)c1ccccc1NC(=O)c1ccc(OC(=O)C(C)(C)C(F)(F)F)cc1,> 10,> 10,> 20,> 20,IC50 (Myeloblastin): > 10 µM
CC(C)(C)C(=O)Oc1ccc(S(=O)(=O)Nc2ccccc2C(=O)NCCO)cc1,0.13,> 10,> 20,0.05,–
CC(C)(C)C(=O)Oc1ccc(S(=O)(=O)Nc2ccccc2C=O)cc1,0.12,> 10,> 20,0.05,–
CCCCC(=O)c1ccccc1NS(=O)(=O)c1ccc(OC(=O)C(C)(C)C)cc1,2.24,> 10,> 20,0.11,–
CCOC(=O)c1ccccc1NC(=O)c1ccc(OC(=O)C(C)(C)C(F)(F)F)cc1,> 10,> 10,> 20,13.8,IC50 (Myeloblastin): > 10 µM
CC(C)(C)C(=O)Oc1ccc(S(=O)(=O)Nc2ccccc2C(=O)NCC(=O)O)cc1,–,> 10,> 20,–,IC50 (Myeloblastin): 0.34 µM; IC50 [4]: > 10 µM; IC50 [5]: 1.95 µM; IC50 (Prothrombin): > 10 µM; IC50 (Neutrophil elastase [6]): 0.145 µM; IC50 (Pancreatic elastase): 2.18517 µM; inhibition (Mus musculus [7]): Active; inhibition (Mus musculus [8]): Active; inhibition (Mus musculus [9]): Active; inhibition (Mus musculus [10]): Active; inhibition (Mus musculus [11]): Active; inhibition (Mus musculus [12]): Active; inhibition (Mus musculus [13]): Active; inhibition (Mus musculus [14]): Active
CC(=O)c1ccccc1NS(=O)(=O)c1ccc(OC(=O)C(C)(C)C)cc1,0.11,> 10,> 20,0.09,–
CCCOC(=O)c1ccccc1NC(=O)c1ccc(OC(=O)C(C)(C)C(F)(F)F)cc1,> 10,> 10,> 20,> 20,IC50 (Myeloblastin): > 10 µM
CCCC(=O)c1ccccc1NS(=O)(=O)c1ccc(OC(=O)C(C)(C)C)cc1,0.37,> 10,> 20,–,–
COC(=O)c1ccccc1NS(=O)(=O)c1ccc(NC(=O)C(C)(C)C)cc1,> 10,> 10,> 20,13.6,IC50 (Myeloblastin): > 10 µM
COC(=O)c1ccccc1NS(=O)(=O)c1ccc(OC(=O)C(C)(C)C(F)(F)F)cc1,–,> 10,–,4.94,–
CCC(=O)c1ccccc1NS(=O)(=O)c1ccc(OC(=O)C(C)(C)C)cc1,0.19,> 10,> 20,–,–
CC(C)(C)[S+]([O-])Nc1ccc(S(=O)(=O)Nc2ccccc2C=O)cc1 (centres undefined),> 10,> 10,> 20,9.41,IC50 (Myeloblastin): > 10 µM
CCC/C(=N/O)c1ccccc1NS(=O)(=O)c1ccc(OC(=O)C(C)(C)C)cc1,–,> 10,> 20,–,–
C/C(=N/O)c1ccccc1NS(=O)(=O)c1ccc(OC(=O)C(C)(C)C)cc1,–,> 10,19.6,–,Activity (Mus musculus [15]): Non-toxic; IC50 [4]: > 10 µM; IC50 [5]: 0.594 µM; IC50 (Prothrombin): > 10 µM; IC50 (Neutrophil elastase [6]): 0.191 µM; IC50 (Pancreatic elastase): 1.88198 µM; inhibition (Mus musculus [16]): Dose-dependent effect; inhibition (Mus musculus [17]): tde; inhibition (Mus musculus [8]): Active; Activity (Mus musculus [18]): Non-toxic; inhibition (Mus musculus [9]): Active; inhibition (Mus musculus [10]): Active; inhibition (Mus musculus [11]): Active; inhibition (Mus musculus [12]): Active; inhibition (Mus musculus [13]): Active; inhibition (Mus musculus [14]): Active
CC/C(=N/O)c1ccccc1NS(=O)(=O)c1ccc(OC(=O)C(C)(C)C)cc1,–,> 10,13.4,–,–
COC(=O)c1ccccc1NC(=O)c1ccc(OC(=O)C(C)(C)C)cc1,0.82,> 10,> 20,0.55,–

# From ChEMBL document CHEMBL3396960, “Synthesis and pharmacological characterization of 2-aminobenzaldehyde oxime analogs as dual inhibitors of neutrophil elastase and proteinase 3” (Bioorg Med Chem, 2015)
